Test results as given in the supplement of paper PMC10307832.

Columns and labels:
Assay in all cases: relative viability (nuclei count vs DMSO), 5 days (fraction); higher = more cells survive
PC-3 [JPC-3] = tested on: PC-3 [JPC-3]
How it was run: (§1)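 Five library-drug doses in √10 steps were combined with a fixed anchor-drug dose, or a single drug was given alone, by pin tool to lung cancer cell lines in 1536-well plates the day after seeding. Nuclei were stained and counted after 5 days. Relative viability is the nuclei count in treated wells over that in vehicle wells, taken as the median of duplicate plates.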

LK-2 = tested on: LK-2
How it was run: as §1

RERF-LC-KJ = tested on: RERF-LC-KJ
How it was run: as §1

EMC-BAC-2 = tested on: EMC-BAC-2
How it was run: as §1

HOP-62 = tested on: HOP-62
How it was run: as §1

NCI-H727 = tested on: NCI-H727
How it was run: as §1

NCI-H3122 = tested on: NCI-H3122
How it was run: as §1

NCI-H596 = tested on: NCI-H596
How it was run: as §1

UMC-11 = tested on: UMC-11
How it was run: as §1

COR-L23 = tested on: COR-L23
How it was run: as §1

CAL-12T = tested on: CAL-12T
How it was run: as §1

NCI-H1651 = tested on: NCI-H1651
How it was run: as §1

NCI-H1650 = tested on: NCI-H1650
How it was run: as §1

HARA = tested on: HARA
How it was run: as §1

NCI-H441 = tested on: NCI-H441
How it was run: as §1

NCI-H1755 = tested on: NCI-H1755
How it was run: as §1

SK-LU-1 = tested on: SK-LU-1
How it was run: as §1

NCI-H1437 = tested on: NCI-H1437
How it was run: as §1

HCC-366 = tested on: HCC-366
How it was run: as §1

NCI-H1734 = tested on: NCI-H1734
How it was run: as §1

NCI-H2347 = tested on: NCI-H2347
How it was run: as §1

Work on `CCNC(=O)c1noc(-c2cc(C(C)C)c(O)cc2O)c1-c1ccc(CN2CCOCC2)cc1` [Luminespib] + CC1(C)CCC(c2ccc(Cl)cc2)=C(CN2CCN(c3ccc(C(=O)NS(=O)(=O)c4ccc(N[C@H](CCN5CCOCC5)CSc5ccccc5)c(S(=O)(=O)C(F)(F)F)c4)cc3)CC2)C1 [Navitoclax] (partner 0.5 µM) yielded a relative viability (PC-3 [JPC-3]; first compound 0.002 µM) of 0.818, a relative viability (PC-3 [JPC-3]; first compound 0.006325 µM) of 0.81 and a relative viability (PC-3 [JPC-3]; first compound 0.02 µM) of 0.648. The relative viability (PC-3 [JPC-3]; first compound 0.06325 µM) was 0.847, the relative viability (PC-3 [JPC-3]; first compound 0.2 µM) was 0.739 and the relative viability (LK-2; first compound 0.002 µM) was 0.826. The relative viability (LK-2; first compound 0.006325 µM) was 0.936, the relative viability (LK-2; first compound 0.02 µM) was 0.571 and the relative viability (LK-2; first compound 0.06325 µM) was 0.163. For the same compound, the relative viability (LK-2; first compound 0.2 µM) was 0.159, the relative viability (RERF-LC-KJ; first compound 0.002 µM) was 0.987 and the relative viability (RERF-LC-KJ; first compound 0.006325 µM) was 1.11. The relative viability (RERF-LC-KJ; first compound 0.02 µM) was 1.07, the relative viability (RERF-LC-KJ; first compound 0.06325 µM) was 0.221 and the relative viability (RERF-LC-KJ; first compound 0.2 µM) was 0.22. For the same compound, the relative viability (EMC-BAC-2; first compound 0.002 µM) was 1.15, the relative viability (EMC-BAC-2; first compound 0.006325 µM) was 1.09 and the relative viability (EMC-BAC-2; first compound 0.02 µM) was 1.12. The relative viability (EMC-BAC-2; first compound 0.06325 µM) was 1.16, the relative viability (EMC-BAC-2; first compound 0.2 µM) was 1.13 and the relative viability (HOP-62; first compound 0.002 µM) was 1. The relative viability (HOP-62; first compound 0.006325 µM) was 1.07, the relative viability (HOP-62; first compound 0.02 µM) was 1.07 and the relative viability (HOP-62; first compound 0.06325 µM) was 0.909. It also gave a relative viability (HOP-62; first compound 0.2 µM) of 0.103, a relative viability (NCI-H727; first compound 0.002 µM) of 0.43 and a relative viability (NCI-H727; first compound 0.006325 µM) of 0.449. For the same compound, the relative viability (NCI-H727; first compound 0.02 µM) was 0.408, the relative viability (NCI-H727; first compound 0.06325 µM) was 0.218 and the relative viability (NCI-H727; first compound 0.2 µM) was 0.27. For the same compound, the relative viability (NCI-H3122; first compound 0.002 µM) was 1.03, the relative viability (NCI-H3122; first compound 0.006325 µM) was 0.956 and the relative viability (NCI-H3122; first compound 0.02 µM) was 1.05. The relative viability (NCI-H3122; first compound 0.06325 µM) was 0.919, the relative viability (NCI-H3122; first compound 0.2 µM) was 0.196 and the relative viability (NCI-H596; first compound 0.002 µM) was 0.954. The relative viability (NCI-H596; first compound 0.006325 µM) was 0.886, the relative viability (NCI-H596; first compound 0.06325 µM) was 0.936 and the relative viability (NCI-H596; first compound 0.2 µM) was 0.996. It also gave a relative viability (UMC-11; first compound 0.002 µM) of 0.305, a relative viability (UMC-11; first compound 0.006325 µM) of 0.349 and a relative viability (UMC-11; first compound 0.02 µM) of 0.224. It also gave a relative viability (UMC-11; first compound 0.06325 µM) of 0.148, a relative viability (UMC-11; first compound 0.2 µM) of 0.108 and a relative viability (COR-L23; first compound 0.002 µM) of 1.14. It also gave a relative viability (COR-L23; first compound 0.006325 µM) of 0.885, a relative viability (COR-L23; first compound 0.02 µM) of 1 and a relative viability (COR-L23; first compound 0.06325 µM) of 0.0758. For the same compound, the relative viability (COR-L23; first compound 0.2 µM) was 0.0617, the relative viability (CAL-12T; first compound 0.002 µM) was 1.47 and the relative viability (CAL-12T; first compound 0.006325 µM) was 1.23. For the same compound, the relative viability (CAL-12T; first compound 0.02 µM) was 0.491, the relative viability (CAL-12T; first compound 0.06325 µM) was 0.106 and the relative viability (CAL-12T; first compound 0.2 µM) was 0.116. For the same compound, the relative viability (NCI-H1651; first compound 0.002 µM) was 0.967, the relative viability (NCI-H1651; first compound 0.006325 µM) was 1.1 and the relative viability (NCI-H1651; first compound 0.02 µM) was 1.08. The relative viability (NCI-H1651; first compound 0.06325 µM) was 0.18, the relative viability (NCI-H1651; first compound 0.2 µM) was 0.144 and the relative viability (NCI-H1650; first compound 0.002 µM) was 1.31. The relative viability (NCI-H1650; first compound 0.006325 µM) was 1.11, the relative viability (NCI-H1650; first compound 0.02 µM) was 0.318 and the relative viability (NCI-H1650; first compound 0.06325 µM) was 0.159. For the same compound, the relative viability (NCI-H1650; first compound 0.2 µM) was 0.144, the relative viability (HARA; first compound 0.002 µM) was 1.21 and the relative viability (HARA; first compound 0.006325 µM) was 1.14. The relative viability (HARA; first compound 0.02 µM) was 1.15, the relative viability (HARA; first compound 0.06325 µM) was 1.08 and the relative viability (HARA; first compound 0.2 µM) was 0.553. It also gave a relative viability (NCI-H441; first compound 0.002 µM) of 0.714, a relative viability (NCI-H441; first compound 0.006325 µM) of 0.648 and a relative viability (NCI-H441; first compound 0.02 µM) of 0.626. The relative viability (NCI-H441; first compound 0.06325 µM) was 0.121, the relative viability (NCI-H441; first compound 0.2 µM) was 0.161 and the relative viability (NCI-H1755; first compound 0.002 µM) was 0.981. It also gave a relative viability (NCI-H1755; first compound 0.006325 µM) of 0.959, a relative viability (NCI-H1755; first compound 0.02 µM) of 0.973 and a relative viability (NCI-H1755; first compound 0.06325 µM) of 0.971. The relative viability (NCI-H1755; first compound 0.2 µM) was 0.933, the relative viability (SK-LU-1; first compound 0.002 µM) was 0.887 and the relative viability (SK-LU-1; first compound 0.006325 µM) was 0.478. It also gave a relative viability (SK-LU-1; first compound 0.02 µM) of 0.505, a relative viability (SK-LU-1; first compound 0.06325 µM) of 0.117 and a relative viability (SK-LU-1; first compound 0.2 µM) of 0.0911. For the same compound, the relative viability (NCI-H1437; first compound 0.002 µM) was 1.06, the relative viability (NCI-H1437; first compound 0.006325 µM) was 1.07 and the relative viability (NCI-H1437; first compound 0.02 µM) was 1.16. The relative viability (NCI-H1437; first compound 0.06325 µM) was 0.318, the relative viability (NCI-H1437; first compound 0.2 µM) was 0.128 and the relative viability (HCC-366; first compound 0.002 µM) was 1.11. For the same compound, the relative viability (HCC-366; first compound 0.006325 µM) was 0.981, the relative viability (HCC-366; first compound 0.02 µM) was 0.966 and the relative viability (HCC-366; first compound 0.06325 µM) was 0.0276. It also gave a relative viability (HCC-366; first compound 0.2 µM) of 0.0215, a relative viability (NCI-H1734; first compound 0.002 µM) of 0.878 and a relative viability (NCI-H1734; first compound 0.006325 µM) of 0.698. The relative viability (NCI-H1734; first compound 0.02 µM) was 0.777, the relative viability (NCI-H1734; first compound 0.06325 µM) was 0.172 and the relative viability (NCI-H1734; first compound 0.2 µM) was 0.122. The relative viability (NCI-H2347; first compound 0.002 µM) was 0.794, the relative viability (NCI-H2347; first compound 0.02 µM) was 0.483 and the relative viability (NCI-H2347; first compound 0.06325 µM) was 0.764. It also gave a relative viability (NCI-H2347; first compound 0.2 µM) of 0.275.
